Test system: atherosclerosis in ApoE−/− (ApoE-KO) mice
Test: Atherosclerosis mouse model (ApoE-KO, high fat diet), histological analyses
Assay type: in vivo
Details: 2.5 mg and 7.5 mg theaflavin treatment, especially high dose of 7.5 mg; versus high fat diet group
Method: Twenty four model male ApoE−/− (ApoE-KO) mice were fed a high fat diet for 6 weeks to develop established atherosclerosis. At 8 weeks of age, they were divided into 4 treatment groups: control, high fat diet, 2.5 mg theaflavin treatment, and 7.5 mg theaflavin treatment. 8 weeks after commencement of the study, ApoE-KO mice were anaesthetized. All animal experiments were performed in accordance with the Guidelines for the Care and Use of Laboratory Animals, Ministry of Science and Technology, China. This study was approved by the Animal Care and Scientific Committee of Huanggang Normal University, Hubei, China.

O=c1c(O)cc([C@H]2Oc3cc(O)cc(O)c3C[C@H]2O)cc2c([C@H]3Oc4cc(O)cc(O)c4C[C@H]3O)cc(O)c(O)c12 [theaflavin]
tissue damages in histology (aorta, adipose): could reverse some of the tissue damages
